Data from ChEMBL document CHEMBL5365407, “Design, synthesis and biological evaluation of nitric oxide-releasing 5-cyano-6-phenyl-2, 4-disubstituted pyrimidine derivatives” (Bioorg Med Chem Lett, 2023).
Active and inactive are the calls of the source. The calls are words filed in the database; no cut-off is given here.

Key:
[1] = tested on: MGC-803; test: Induction of reactive oxygen species generation in human MGC-803 cells by DCFH-DA staining fluorescence assay; format: functional, cell-based; conditions: dose 0.5-2 µM
[2] = tested on: MGC-803; test: Induction of cell cycle arrest in human MGC-803 cells assessed as accumulation of cells at G0/G1 phase at 0.5 uM incubated for 24 hrs by PI staining based flow cytometry analysis (reference value: 56.68 %); format: functional
[3] = tested on: MGC-803; test: Induction of morphological changes in human MGC-803 cells assessed as nuclear shrinkage at 0.5 to 2 uM incubated for 48 hrs by DAPI staining based fluorescence microscopy; format: functional, cell-based; conditions: dose 0.5-2 µM
[4] = tested on: MGC-803; test: Induction of cell cycle arrest in human MGC-803 cells assessed as accumulation of cells at S phase at 1 uM incubated for 24 hrs by PI staining based flow cytometry analysis (reference value: 29.00 %); format: functional
[5] = tested on: MGC-803; test: Induction of apoptosis in human MGC-803 cells assessed as viable cells at 1 uM by Annexin V-FITC/PI staining based flow cytometric analysis (reference value: 94.4%); format: functional; conditions: read-out: Activity
[6] = tested on: MGC-803; test: Induction of apoptosis in human MGC-803 cells assessed as viable cells at 0.5 uM by Annexin V-FITC/PI staining based flow cytometric analysis (reference value: 94.4%); format: functional; conditions: read-out: Activity
[7] = tested on: MGC-803; test: Induction of cell cycle arrest in human MGC-803 cells assessed as accumulation of cells at S phase at 2 uM incubated for 24 hrs by PI staining based flow cytometry analysis (reference value: 29.00 %); format: functional
[8] = tested on: MGC-803; test: cells; conditions: Homo sapiens, MGC-803, 72 h
Description: Antiproliferative activity against human MGC-803 cells measured after 72 hrs by MTT assay

[9] = tested on: MGC-803; test: Antiproliferative activity against human MGC-803 assessed as reduction in cell survival measured after 24 hrs in presence of NO scavenger hemoglobin at 1 to 20 uM by MTT assay; format: functional, cell-based
[10] = tested on: MGC-803; test: Induction of cell cycle arrest in human MGC-803 cells assessed as accumulation of cells at G2/M phase at 2 uM incubated for 24 hrs by PI staining based flow cytometry analysis (reference value: 14.32 %); format: functional
[11] = tested on: MGC-803; test: Induction of apoptosis in human MGC-803 cells by Annexin V-FITC/PI staining based flow cytometric analysis; format: functional, cell-based; conditions: dose 0.5-2 µM
[12] = tested on: MGC-803; test: Induction of apoptosis in human MGC-803 cells assessed as late apoptotic cells at 2 uM by Annexin V-FITC/PI staining based flow cytometric analysis (reference value: 2.14 %); format: functional
[13] = tested on: MGC-803; test: Induction of apoptosis in human MGC-803 cells assessed as late apoptotic cells at 1 uM by Annexin V-FITC/PI staining based flow cytometric analysis (reference value: 2.14 %); format: functional
[14] = tested on: MGC-803; test: Antiproliferative activity against human MGC-803 assessed as cell survival by MTT assay relative to control; format: functional
[15] = tested on: MGC-803; test: Induction of cell cycle arrest in human MGC-803 cells assessed as accumulation of cells at G2/M phase at 0.5 uM incubated for 24 hrs by PI staining based flow cytometry analysis (reference value: 14.32 %); format: functional
[16] = tested on: MGC-803; test: Induction of apoptosis in human MGC-803 cells assessed as early apoptotic cells at 0.5 uM by Annexin V-FITC/PI staining based flow cytometric analysis (reference value: 2.79%); format: functional
[17] = tested on: MGC-803; test: Antiproliferative activity against human MGC-803 cells assessed as reduction in colony area at 0.5 to 2 uM by crystal violet staining based assay; format: functional, cell-based; conditions: dose 0.5-2 µM
[18] = tested on: MGC-803; test: Induction of apoptosis in human MGC-803 cells assessed as necrotic cells at 2 uM by Annexin V-FITC/PI staining based flow cytometric analysis (reference value: 0.69%); format: functional
[19] = tested on: MGC-803; test: Induction of cell cycle arrest in human MGC-803 cells assessed as accumulation of cells at G0/G1 phase at 1 uM incubated for 24 hrs by PI staining based flow cytometry analysis (reference value: 56.68 %); format: functional
[20] = tested on: MGC-803; test: Induction of apoptosis in human MGC-803 cells assessed as necrotic cells at 1 uM by Annexin V-FITC/PI staining based flow cytometric analysis (reference value: 0.69%); format: functional
[21] = tested on: MGC-803; test: Induction of morphological changes in human MGC-803 cells assessed as nuclear condensation at 0.5 to 2 uM incubated for 48 hrs by DAPI staining based fluorescence microscopy; format: functional, cell-based; conditions: dose 0.5-2 µM
[22] = tested on: MGC-803; test: Induction of morphological changes in human MGC-803 cells assessed as appearance of dense and concentrated granules at 0.5 to 2 uM for 48 hrs by DAPI staining based fluorescence microscopy; format: functional, cell-based; conditions: dose 0.5-2 µM
[23] = tested on: MGC-803; test: Induction of cell cycle arrest in human MGC-803 cells assessed as accumulation of cells at G0/G1 phase at 2 uM incubated for 24 hrs by PI staining based flow cytometry analysis (reference value: 56.68 %); format: functional
[24] = tested on: MGC-803; test: Induction of cell cycle arrest in human MGC-803 cells assessed as accumulation of cells at G2/M phase at 1 uM incubated for 24 hrs by PI staining based flow cytometry analysis (reference value: 14.32 %); format: functional
[25] = tested on: MGC-803; test: Induction of apoptosis in human MGC-803 cells assessed as viable cells at 2 uM by Annexin V-FITC/PI staining based flow cytometric analysis (reference value: 94.4%); format: functional; conditions: read-out: Activity
[26] = tested on: MGC-803; test: Antiproliferative activity against human MGC-803 cells assessed as decrease in number of colonies by crystal violet staining based assay; format: functional, cell-based; conditions: dose 0.5-2 µM
[27] = tested on: PC-3; test: Antiproliferative activity against human PC-3 cells measured after 72 hrs by MTT assay; format: functional, cell-based; conditions: PC-3, 72 h
[28] = tested on: MGC-803; test: Induction of apoptosis in human MGC-803 cells assessed as late apoptotic cells at 0.5 uM by Annexin V-FITC/PI staining based flow cytometric analysis (reference value: 2.14 %); format: functional
[29] = tested on: MGC-803; test: Induction of apoptosis in human MGC-803 cells assessed as early apoptotic cells at 2 uM by Annexin V-FITC/PI staining based flow cytometric analysis (reference value: 2.79%); format: functional
[30] = tested on: MCF7; test: cells; conditions: Homo sapiens, MCF7, 72 h
Description: Antiproliferative activity against human MCF7 cells measured after 72 hrs by MTT assay

[31] = tested on: ECa-109 cell line; test: Antiproliferative activity against human Eca-109 cells measured after 72 hrs by MTT assay; format: functional, cell-based; conditions: ECa-109, 72 h
[32] = Induction of NO release in phosphate buffer containing excess L-cysteine measured up to 14 hrs by Griess assay; format: functional
[33] = tested on: MGC-803; test: Induction of apoptosis in human MGC-803 cells assessed as necrotic cells at 0.5 uM by Annexin V-FITC/PI staining based flow cytometric analysis (reference value: 0.69%); format: functional
[34] = tested on: MGC-803; test: Induction of morphological changes in human MGC-803 cells assessed as appearance of broken cell at 0.5 to 2 uM incubated for 48 hrs by DAPI staining based fluorescence microscopy; format: functional; conditions: dose 0.5-2 µM
[35] = tested on: MGC-803; test: Induction of cell cycle arrest in human MGC-803 cells assessed as accumulation of cells at S phase at 0.5 uM incubated for 24 hrs by PI staining based flow cytometry analysis (reference value: 29.00 %); format: functional
[36] = tested on: MGC-803; test: Induction of apoptosis in human MGC-803 cells assessed as early apoptotic cells at 1 uM by Annexin V-FITC/PI staining based flow cytometric analysis (reference value: 2.79%); format: functional
[37] = tested on: Bel7402/5-FU; test: Antiproliferative activity against human BEL-7402/5-FU cell; format: functional, cell-based
[38] = target: T1, Tyrosine-protein kinase JAK3 (Homo sapiens, UniProt P52333); test: biochemical; format: cell-based, Sf9
T1 sequence (P52333 whole entry): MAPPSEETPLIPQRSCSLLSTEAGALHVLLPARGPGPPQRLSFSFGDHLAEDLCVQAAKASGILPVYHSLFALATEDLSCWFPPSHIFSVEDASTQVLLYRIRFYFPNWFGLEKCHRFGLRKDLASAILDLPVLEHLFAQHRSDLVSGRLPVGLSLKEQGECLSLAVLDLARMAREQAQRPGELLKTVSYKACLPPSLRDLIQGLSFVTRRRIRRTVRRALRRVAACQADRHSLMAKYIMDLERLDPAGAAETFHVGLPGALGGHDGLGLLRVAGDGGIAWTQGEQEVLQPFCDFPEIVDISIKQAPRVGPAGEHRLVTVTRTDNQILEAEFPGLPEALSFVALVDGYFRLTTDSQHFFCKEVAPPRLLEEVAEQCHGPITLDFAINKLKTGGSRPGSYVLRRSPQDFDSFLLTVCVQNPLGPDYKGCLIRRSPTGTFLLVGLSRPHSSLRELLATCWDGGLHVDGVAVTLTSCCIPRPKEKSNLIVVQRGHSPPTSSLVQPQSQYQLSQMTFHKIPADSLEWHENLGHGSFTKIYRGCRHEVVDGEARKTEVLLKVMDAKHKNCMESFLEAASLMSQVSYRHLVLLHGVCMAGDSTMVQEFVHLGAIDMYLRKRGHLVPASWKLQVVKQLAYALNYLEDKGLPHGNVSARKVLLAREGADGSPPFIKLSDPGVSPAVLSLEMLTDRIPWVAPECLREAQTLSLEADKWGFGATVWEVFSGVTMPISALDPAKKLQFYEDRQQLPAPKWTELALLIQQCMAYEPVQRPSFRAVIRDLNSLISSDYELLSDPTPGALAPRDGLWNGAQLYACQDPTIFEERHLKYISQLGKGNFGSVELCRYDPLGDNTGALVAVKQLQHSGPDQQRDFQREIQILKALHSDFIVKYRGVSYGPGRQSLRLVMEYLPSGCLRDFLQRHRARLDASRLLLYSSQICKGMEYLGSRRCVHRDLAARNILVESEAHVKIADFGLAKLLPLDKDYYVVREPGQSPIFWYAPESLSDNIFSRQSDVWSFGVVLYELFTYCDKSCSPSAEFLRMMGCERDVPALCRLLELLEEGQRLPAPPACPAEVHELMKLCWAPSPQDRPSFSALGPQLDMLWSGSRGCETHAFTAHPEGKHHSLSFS
Description: Inhibition of recombinant human N-terminal GST-tagged JAK3 (781 to end residues) expressed in baculovirus infected Sf9 cells using poly (Glu,Tyr) 4:1 as substrate incubated for 60 mins in presence of ATP by ADP-Glo kinase assay

[39] = target: Lysine-specific histone demethylase 1A (Homo sapiens, UniProt O60341); test: Inhibition of LSD1 (unknown origin)

Q: With `COc1cc(Nc2nc(SCC(=O)N3CCN(CCOc4no[n+]([O-])c4S(=O)(=O)c4ccccc4)CC3)nc(-c3ccccc3)c2C#N)cc(OC)c1OC` as the compound, how does the Activity [1] read?
A: The Activity was “Dose-Dependent Effect”.

Q: And the Activity [2]?
A: The Activity was 60.59%.

Q: What about the Activity [3] of the same compound?
A: The Activity was “Active”.

Q: And the Activity [4]?
A: Its Activity is 19.71%.

Q: What about the viability at 1 µM [5] of the same compound?
A: The viability at 1 µM was 65.1%.

Q: What about the viability at 0.5 µM [6] of the same compound?
A: The viability at 0.5 µM was 75.2%.

Q: And the Activity [7]?
A: The Activity was 15.27%.

Q: What about the IC50 [8] of the same compound?
A: Its IC50 is 950 nM.

Q: What about the Activity [9] of the same compound?
A: The Activity was “inactive”.

Q: What about the Activity [10] of the same compound?
A: Its Activity is 10.4%.

Q: What about the Activity [11] of the same compound?
A: Its Activity is “Dose-Dependent Effect”.

Q: And the Activity [12]?
A: Its Activity is 28.7%.

Q: And the Activity [13]?
A: Its Activity is 24%.

Q: And the Activity [14]?
A: The Activity was 20%.

Q: And the Activity [15]?
A: Its Activity is 14.58%.

Q: What about the Activity [16] of the same compound?
A: Its Activity is 6.5%.

Q: What about the Activity [17] of the same compound?
A: The Activity was “Active”.

Q: What about the Activity [18] of the same compound?
A: Its Activity is 2.69%.

Q: And the Activity [19]?
A: The Activity was 65.87%.

Q: And the Activity [20]?
A: The Activity was 3.21%.

Q: And the Activity [21]?
A: The Activity was “Active”.

Q: And the Activity [22]?
A: The Activity was “Active”.

Q: And the Activity [23]?
A: The Activity was 74.33%.

Q: What about the Activity [24] of the same compound?
A: The Activity was 14.43%.

Q: What about the viability at 2 µM [25] of the same compound?
A: The viability at 2 µM was 58.3%.

Q: What about the Activity [26] of the same compound?
A: The Activity was “Dose-Dependent Effect”.

Q: What about the IC50 [27] of the same compound?
A: Its IC50 is 1140 nM.

Q: What about the Activity [28] of the same compound?
A: The Activity was 15.1%.

Q: And the Activity [29]?
A: Its Activity is 10.4%.

Q: And the IC50 [30]?
A: Its IC50 is 2030 nM.

Q: What about the IC50 [31] of the same compound?
A: Its IC50 is 2210 nM.

Q: And the Activity [32]?
A: Its Activity is “Active”.

Q: What about the Activity [33] of the same compound?
A: The Activity was 3.22%.

Q: And the Activity [34]?
A: Its Activity is “Active”.

Q: What about the Activity [35] of the same compound?
A: Its Activity is 24.83%.

Q: And the Activity [36]?
A: The Activity was 7.71%.

Q: Which IC50 [37] does the source give for `O=C1C(NCCOc2no[n+]([O-])c2S(=O)(=O)c2ccccc2)=CC(=O)c2ncccc21` here?
A: Its IC50 is 420 nM.

Q: Which IC50 [38] does the source give for `N#Cc1ccccc1Nc1nc(Nc2ccc(NC(=O)CN3CCOCC3)cc2)ncc1Cl` here?
A: Its IC50 is 20.7 nM.

Q: For `COc1ccc(/C=N/NC2NC(SCC(C)C)=NC(c3ccc(OC)cc3)=C2C#N)cc1` (centres undefined), which IC50 [39] is on record?
A: The IC50 was 956 nM.
